Results: ChEMBL document CHEMBL1146960, “Synthesis and anticancer activity of thiosemicarbazones” (Bioorg Med Chem Lett, 2006)

Experiments:
Assay type in all cases: functional
[1] = test system: SGC-7901; test: Antitumor activity against SGC7901 cell line at 10 umol/L by SRB method; settings: Homo sapiens
[2] = test system: P388; test: Antitumor activity against P388 cell line at 100 umol/L by MTT method; settings: Mus musculus
[3] = test system: P388; test: Antitumor activity against P388 cell line at 10 umol/L by MTT method; settings: Mus musculus
[4] = test system: SGC-7901; test: Antitumor activity against SGC7901 cell line at 1 umol/L by SRB method; settings: Homo sapiens
[5] = test system: P388; test: Antitumor activity against P388 cell line at 0.1 umol/L by MTT method; settings: Mus musculus
[6] = test system: SGC-7901; test: Antitumor activity against SGC7901 cell line at 100 umol/L by SRB method; settings: Homo sapiens
[7] = test system: P388; test: Antitumor activity against P388 cell line at 0.01 umol/L by MTT method; settings: Mus musculus
[8] = test system: SGC-7901; test: Antitumor activity against SGC7901 cell line at 0.01 umol/L by SRB method; settings: Homo sapiens
[9] = test system: P388; test: Antitumor activity against P388 cell line at 1 umol/L by MTT method; settings: Mus musculus
[10] = test system: SGC-7901; test: Antitumor activity against SGC7901 cell line at 0.1 umol/L by SRB method; settings: Homo sapiens
[11] = test system: A549; test: Antitumor activity against A549 cell line at 0.1 umol/L by SRB method; settings: Homo sapiens
[12] = test system: A549; test: Antitumor activity against A549 cell line at 10 umol/L by SRB method; settings: Homo sapiens
[13] = test system: A549; test: Antitumor activity against A549 cell line at 1 umol/L by SRB method; settings: Homo sapiens

Structure (SMILES) | inhibition at 10 µM [1] | inhibition at 100 µM [2] | inhibition at 10 µM [3] | inhibition at 1 µM [4] | inhibition at 0.1 µM [5] | inhibition at 100 µM [6] | inhibition at 0.01 µM [7] | inhibition at 0.01 µM [8] | inhibition at 1 µM [9] | inhibition at 0.1 µM [10] | inhibition at 0.1 µM [11] | inhibition at 10 µM [12] | inhibition at 1 µM [13]
COc1ccc(N/C(S)=N/N=C(/C)c2cccs2)cc1 | 29.2% | 25.9% | 5.2% | 0% | 3.6% | 65.1% | 0% | 0% | 6.9% | 0% |  |  | 
C/C(=N/N=C(\S)N1CCN(c2ccccn2)CC1)c1nccs1 | 92.5% |  | 94.5% | 60.8% | 73.5% |  |  |  | 74.3% | 14.3% | 15.6% | 13.6% | 21.5%
C/C(=N/N=C(\S)Nc1ccc(Cl)cc1)c1cccs1 | 12.7% | 21.6% | 9.9% | 0% | 0% | 56.7% | 0% | 0% | 0% | 0% |  |  | 
CCn1cc(C(=O)O)c(=O)c2cc(F)c(N3CCN(/C(S)=N/N=C(/C)c4ccccc4)CC3)cc21 |  |  | 100% |  | 0% |  |  |  | 24.8% |  | 0% | 63.9% | 0.8%
C/C(=N/N=C(\S)N1CCN(c2ccccn2)CC1)c1ccc([N+](=O)[O-])cc1 |  |  | 6.4% |  | 4.6% |  |  |  | 4.6% |  | 0% | 16.4% | 0%
C/C(=N/NC(=S)N1CCN(c2ccccn2)CC1)c1ccccn1 |  |  | 100% |  | 13.8% |  |  |  | 12.8% |  | 24.6% | 100% | 19.7%
C/C(=N/N=C(\S)Nc1ccc(C)cc1)c1cccs1 | 33.9% | 8.4% | 9.2% | 15% | 10.8% | 67.8% | 0% | 8.8% | 5.7% | 9.6% |  |  | 
C/C(=N/N=C(\S)Nc1ccc([N+](=O)[O-])cc1)c1cccs1 | 35.7% | 8.6% | 0% | 8.3% | 3.6% | 51.7% | 10.3% | 9.1% | 2.1% | 14.5% |  |  | 
C/C(=N/N=C(\S)N1CCN(c2ccccn2)CC1)c1ccc(Cl)cc1 |  |  | 0% |  | 0% |  |  |  | 0% |  | 0.8% | 0% | 0%
C/C(=N/N=C(\S)N1CCN(c2ccccn2)CC1)c1ccc(N)cc1 |  |  | 30.3% |  | 12.1% |  |  |  | 4.6% |  | 0% | 46.8% | 0%
C/C(=N/N=C(\S)N1CCN(c2ccccn2)CC1)c1ccccc1 |  |  | 4.6% |  | 0% |  |  |  | 0% |  | 0% | 0.8% | 0%
C/C(=N/N=C(\S)Nc1ccccc1C)c1cccs1 | 41.6% | 91.9% | 1.3% | 5.5% | 5.9% | 73.5% | 0% | 7.1% | 0% | 0% |  |  | 
C/C(=N/N=C(\S)Nc1cccc(Cl)c1)c1cccs1 | 39.7% | 51% | 6.5% | 0% | 8.3% | 86.8% | 0% | 0% | 3.7% | 0% |  |  | 
CCn1cc(C(=O)O)c(=O)c2cc(F)c(N3CCN(/C(S)=N/N=C\c4ccccc4)CC3)cc21 |  |  | 68.8% |  | 0% |  |  |  | 4.6% |  | 0% | 4.1% | 0.8%
C/C(=N/N=C(\S)N1CCN(c2ccccn2)CC1)c1ccco1 |  |  | 77.3% |  | 37.9% |  |  |  | 50% |  | 0% | 72.3% | 0%
C/C(=N/N=C(\S)Nc1cc(Cl)cc(Cl)c1)c1cccs1 | 27.9% | 90.1% | 20.9% | 0% | 17.6% | 72.9% | 0% | 0% | 7% | 0% |  |  | 
COc1ccc(/C(C)=N\N=C(/S)N2CCN(c3ccccn3)CC2)cc1 |  |  | 7.3% |  | 2.8% |  |  |  | 3.7% |  | 3.3% | 0.8% | 0%
C/C(=N/N=C(\S)N1CCN(c2ccccn2)CC1)c1ccc(O)cc1 |  |  | 53% |  | 28.8% |  |  |  | 25.8% |  | 0% | 0% | 0%
C/C(=N/N=C(\S)N1CCN(C2CCCCCC2)CC1)c1ccccn1 |  |  | 96.5% |  | 39.8% |  |  |  | 41.6% |  | 0% | 40% | 17.8%
C/C(=N/N=C(\S)Nc1cccc2ccccc12)c1cccs1 | 24.3% | 30.3% | 4.3% | 13.5% | 0.9% | 55.9% | 0% | 20% | 7.2% | 16.5% |  |  | 
CCn1cc(C(=O)O)c(=O)c2cc(F)c(N3CCN(/C(S)=N/N=C(/C)c4ccccn4)CC3)cc21 |  |  | 26.6% |  | 0% |  |  |  | 4.6% |  | 0% | 7.4% | 16.4%
S=C(N/N=C\c1ccccc1)N1CCN(c2ccccn2)CC1 |  |  | 7.3% |  | 3.7% |  |  |  | 4.6% |  | 0.8% | 0% | 16.4%
C/C(=N/N=C(\S)N1CCN(c2ccccn2)CC1)c1ccc(C)cc1 |  |  | 25.8% |  | 28.8% |  |  |  | 21.2% |  | 0% | 0% | 0%
C/C(=N/N=C(\S)Nc1ccccc1)c1cccs1 | 0% | 48% | 1.2% | 0% | 6.2% | 39.2% | 8.5% | 0% | 1.6% | 0% |  |  | 
